Each cell line was assayed with CC1(COc2ccc3c(c2)ncn3-c2ccc3cccc(N4CCC(N)CC4)c3n2)COC1 [Crenolanib] + C[C@]1(O)C[C@@H](c2nc(-c3ccc4ccc(-c5ccccc5)nc4c3)c3c(N)nccn32)C1 [Linsitinib] (partner 1 µM) (assay: relative viability (nuclei count vs DMSO), 5 days (fraction); higher = more cells survive). Details: first compound 0.01 µM.
Outline: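 Relative viability equals treated-well nuclei counts divided by vehicle-well nuclei counts. Counts came from 4× images of lung cancer cell lines grown in 1536-well plates for 5 days after pin-tool dosing on the day after seeding. Dosing used one drug alone or a fixed anchor-drug dose plus five library-drug doses (not always all listed) in √10 steps, and values are medians of duplicate plates.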

Cell Line | relative viability
NCI-H838 | 1.05
NCI-H1651 | 1.06
EBC-1 | 0.946
NCI-H1734 | 0.925
NCI-H2009 | 1.23
PC-14 | 1.07
LCLC-97TM1 | 0.18
NCI-H596 | 1.01
NCI-H2228 | 0.762
EMC-BAC-2 | 0.826
NCI-H2087 | 1.02
Calu-6 | 1.01
HCC-44 | 0.674
NCI-H1703 | 0.566
NCI-H647 | 1.14
LK-2 | 0.675

Cell Line | relative viability
NCI-H2126 | 0.693
SK-MES-1 | 1.09
HARA | 0.914
COR-L23 | 1.06
COR-L 105 | 0.873
LC-2-ad | 0.834
LU99A | 0.547
NCI-H3122 | 1.03
IA-LM | 0.717
HCC-78 | 0.654
A549 | 0.674
NCI-H441 | 0.555
NCI-H1395 | 1.6
NCI-H1299 | 0.995
NCI-H1793 | 0.811
LCLC-103H | 1.09

Same assay, conditions: first compound 0.03162 µM

Cell Line | relative viability
NCI-H838 | 0.967
NCI-H1651 | 0.988
EBC-1 | 0.832
NCI-H1734 | 0.934
NCI-H2009 | 1.2
EPLC-272H | 1.19
PC-14 | 0.93
LCLC-97TM1 | 0.222
NCI-H596 | 0.994
NCI-H2228 | 0.591
EMC-BAC-2 | 0.874
NCI-H2087 | 1.13
Calu-6 | 0.813
HCC-44 | 0.67
NCI-H1703 | 0.645
NCI-H647 | 1.11
LK-2 | 0.626

Cell Line | relative viability
NCI-H2126 | 0.717
SK-MES-1 | 1.13
HARA | 0.886
COR-L23 | 1.02
COR-L 105 | 1.09
LC-2-ad | 0.887
LU99A | 0.559
NCI-H3122 | 1
IA-LM | 0.558
HCC-78 | 0.512
A549 | 0.598
NCI-H441 | 0.508
NCI-H1395 | 1.11
NCI-H1299 | 0.912
NCI-H1793 | 1.03
LCLC-103H | 0.989

Same assay, conditions: first compound 0.1 µM

Cell Line | relative viability
NCI-H838 | 0.929
NCI-H1651 | 0.892
EBC-1 | 0.85
NCI-H1734 | 0.858
NCI-H2009 | 1.2
EPLC-272H | 0.982
PC-14 | 1.03
LCLC-97TM1 | 0.185
NCI-H596 | 0.97
NCI-H2228 | 0.565
EMC-BAC-2 | 0.805
NCI-H2087 | 0.917
Calu-6 | 0.873
HCC-44 | 0.638
NCI-H1703 | 0.574
NCI-H647 | 1.09
LK-2 | 0.624

Cell Line | relative viability
NCI-H2126 | 0.745
SK-MES-1 | 0.945
HARA | 0.983
COR-L23 | 0.884
COR-L 105 | 0.748
LC-2-ad | 0.797
LU99A | 0.531
NCI-H3122 | 0.994
IA-LM | 0.605
HCC-78 | 0.496
A549 | 0.529
NCI-H441 | 0.46
NCI-H1395 | 1
NCI-H1299 | 0.946
NCI-H1793 | 0.838
LCLC-103H | 1.08

Same assay, conditions: first compound 0.3162 µM

Cell Line | relative viability
NCI-H838 | 1.09
NCI-H1651 | 1.02
EBC-1 | 0.978
NCI-H1734 | 1.02
NCI-H2009 | 1.21
EPLC-272H | 1.18
PC-14 | 1.05
LCLC-97TM1 | 0.186
NCI-H596 | 0.961
NCI-H2228 | 0.691
EMC-BAC-2 | 0.821
NCI-H2087 | 1.23
Calu-6 | 1.03
HCC-44 | 0.673
NCI-H1703 | 0.285
NCI-H647 | 1.31
LK-2 | 0.425

Cell Line | relative viability
NCI-H2126 | 0.759
SK-MES-1 | 1.13
HARA | 0.975
COR-L23 | 1.15
COR-L 105 | 1.22
LC-2-ad | 0.844
LU99A | 0.628
NCI-H3122 | 1.07
IA-LM | 0.841
HCC-78 | 0.518
A549 | 0.69
NCI-H441 | 0.484
NCI-H1395 | 0.898
NCI-H1299 | 1.01
NCI-H1793 | 1.14
LCLC-103H | 1.08

Same assay, conditions: first compound 1 µM

Cell Line | relative viability
NCI-H838 | 0.943
NCI-H1651 | 0.878
EBC-1 | 0.996
NCI-H1734 | 0.895
NCI-H2009 | 1.19
EPLC-272H | 1.06
PC-14 | 0.93
LCLC-97TM1 | 0.184
NCI-H596 | 1.18
NCI-H2228 | 0.729
EMC-BAC-2 | 0.808
NCI-H2087 | 1.02
Calu-6 | 0.936
HCC-44 | 0.629
NCI-H1703 | 0.154
NCI-H647 | 1.34
LK-2 | 0.562
NCI-H2126 | 0.788
SK-MES-1 | 1.04
HARA | 0.926
COR-L23 | 0.88
COR-L 105 | 0.92
LC-2-ad | 0.873
LU99A | 0.603
NCI-H3122 | 1.05
IA-LM | 0.834
HCC-78 | 0.506

Source: the supplement of paper PMC10307832
